This is an account of results in publication PMC5589878, “Development of Fluorescent Probes that Target Serotonin 5-HT2B Receptors” (Scientific Reports, 2017).

Read-outs that look alike come from different tables or passages of the source.

One data set addresses T1, human 5-HT2C receptors (Homo sapiens, UniProt P28335).
T1 construct: expressed in transfected cells; host or cells: HeLa-5-HT2C cells (membranes)
T1 sequence (P28335 33-458): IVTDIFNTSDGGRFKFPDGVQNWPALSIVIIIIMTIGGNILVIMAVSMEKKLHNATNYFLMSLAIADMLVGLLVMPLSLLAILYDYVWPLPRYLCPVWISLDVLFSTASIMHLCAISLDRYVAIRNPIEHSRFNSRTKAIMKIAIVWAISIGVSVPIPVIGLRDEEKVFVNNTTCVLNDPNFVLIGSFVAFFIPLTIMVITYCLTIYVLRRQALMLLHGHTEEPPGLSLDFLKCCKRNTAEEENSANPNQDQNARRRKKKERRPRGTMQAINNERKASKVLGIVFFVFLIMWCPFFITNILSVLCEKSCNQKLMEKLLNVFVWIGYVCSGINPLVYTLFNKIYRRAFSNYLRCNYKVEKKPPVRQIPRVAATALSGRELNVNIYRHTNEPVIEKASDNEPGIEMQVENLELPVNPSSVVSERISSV
Kind of data set: Radioligand competition binding assay at human 5-HT2C receptors.

In a further data set the target is 5-HT2A receptors (Homo sapiens, UniProt P28223). Kind of data set: Radioligand competition binding assay at human 5-HT2A receptors. On the set-up: expressed in transfected cells; host or cells: CHO-FA4-5-HT2A cells (membranes).
Sequence of 5-HT2A receptors (P28223 whole entry): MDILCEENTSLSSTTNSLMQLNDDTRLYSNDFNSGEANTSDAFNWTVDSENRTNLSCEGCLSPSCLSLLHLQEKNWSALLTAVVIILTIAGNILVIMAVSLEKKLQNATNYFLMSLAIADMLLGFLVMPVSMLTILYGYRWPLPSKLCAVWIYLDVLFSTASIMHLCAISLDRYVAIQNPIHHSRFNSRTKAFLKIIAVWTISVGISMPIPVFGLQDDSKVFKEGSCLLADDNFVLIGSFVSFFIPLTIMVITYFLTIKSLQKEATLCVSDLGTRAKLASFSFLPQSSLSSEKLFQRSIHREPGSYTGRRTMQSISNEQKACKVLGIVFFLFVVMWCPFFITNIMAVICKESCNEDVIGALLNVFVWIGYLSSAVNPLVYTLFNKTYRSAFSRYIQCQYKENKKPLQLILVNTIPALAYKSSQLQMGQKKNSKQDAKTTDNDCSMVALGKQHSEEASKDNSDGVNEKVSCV
Data set [1] can be described thus: Absorption and emission spectra (photophysical properties). The following applies: 10 μM solutions. Format: physicochemical. The protocol:
The absorption and emission spectra of the fluorescent 5-HT2 ligands (10 and 12) were determined on 10 μM solutions. The most relevant fluorescent properties are collected in Fig. 5. All of the synthesized derivatives emitted fluorescence in the visible region of the spectrum, with selected fluorescent tags (Fig. 4) providing distinctive properties and excitation wavelengths. The excitation wavelengths varied from 305 to 555 nm, whereas those for emission varied from 398 to 580 nm.

Data set [2] deals with T2, 5-HT2B receptors (Homo sapiens, UniProt P41595). Kind of data set: Functional assay of IPs accumulation at human 5-HT2B receptors. The data set is classed as cell-based. On the procedure:
After 24 h, growth medium was replaced by serum-free medium containing 10 μCi/mL [^3H]myo-inositol (20.3 Ci/mmol, Perkin-Elmer) for 24 h. […] After the incubation time, assay buffer was discarded and 200 μL of 100 mM formic acid was added to the cells for 30 min at 4 °C and 20 μL of the lysate were transferred to a flexiplate plate (Perkin-Elmer, Waltham, MA, USA) together with 80 μL of a solution of RNA Binding YSi SPA Beads (Perkin-Elmer, Waltham, MA, USA) to measure accumulation of [^3H]IPs (IP1,IP2, and IP3, collectively referred to as IPs).

In data set [3] the target is T2, 5-HT2B receptors. Kind of data set: Radioligand competition binding assay at human 5-HT2B receptors.

T2 sequence (P41595 whole entry): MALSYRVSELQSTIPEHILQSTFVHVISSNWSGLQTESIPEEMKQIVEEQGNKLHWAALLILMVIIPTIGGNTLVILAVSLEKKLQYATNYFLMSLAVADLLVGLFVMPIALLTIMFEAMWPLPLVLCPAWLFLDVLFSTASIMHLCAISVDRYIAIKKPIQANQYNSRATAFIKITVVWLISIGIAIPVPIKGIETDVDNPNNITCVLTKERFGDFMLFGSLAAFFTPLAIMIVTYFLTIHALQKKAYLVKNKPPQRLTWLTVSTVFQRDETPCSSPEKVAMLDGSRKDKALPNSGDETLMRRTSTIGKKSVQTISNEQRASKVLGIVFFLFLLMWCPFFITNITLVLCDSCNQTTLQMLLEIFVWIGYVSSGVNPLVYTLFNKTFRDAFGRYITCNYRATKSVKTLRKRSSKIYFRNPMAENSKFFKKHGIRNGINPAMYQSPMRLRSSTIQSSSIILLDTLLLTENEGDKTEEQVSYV

With “3-(2-(2-(2-(2-aminopropyl)-5-iodo-4-methoxyphenoxy)ethoxy)ethoxy)-N-(3-((5-(dimethylamino)naphthalene)-1-sulfonamido)propyl)propanamide [10d]”, on human 5-HT2C receptors (at 1 μM, [3H]Mesulergine, membranes from HeLa-5-HT2C cells), the “Binding at 5-HT2 receptors % at 1 μM 5-HT2C” value amounted to 3%. Besides, the inhibition constant Ki at 5-HT2A receptors ([3H]Ketanserin, membranes from CHO-FA4-5-HT2A cells, read-out: Binding at 5-HT2 receptors Ki 5-HT2A) was 13 µM.

Regarding `COc1cc(CC(C)N)c(OCCCC(=O)NCCCNS(=O)(=O)c2cccc3c(N(C)C)cccc23)cc1I` (stereo not shown) [10a, 4-(2-(2-aminopropyl)-5-iodo-4-methoxyphenoxy)-N-(3-((5-(dimethyl-amino)naphthalene)-1-sulfonamido)propyl)butanamide], in data set [1], the “Δλ (Stokes shift)” value was 147 nm, the εmax was found to be 2726 M⁻¹ cm⁻¹, the “λmax Abs” value was 350 nm and the “λmax Em” value was 497 nm. In addition, the affinity at human 5-HT2C receptors, expressed as Ki, was 0.273 µM. This molecule also returned an EC50 on 5-HT2B receptors [2] of 0.0891 µM. This molecule gave an inhibitory constant (Ki) at 5-HT2A receptors of 1.71 µM. The molecule also yielded a Ki at 5-HT2B receptors [3] of 0.112 µM.

As to `COc1cc(CC(C)N)c(OCCCCCCC(=O)NCCCNS(=O)(=O)c2cccc3c(N(C)C)cccc23)cc1I` (stereo not shown) [10b, 7-(2-(2-aminopropyl)-5-iodo-4-methoxyphenoxy)-N-(3-((5-(dimethylami-no)naphthalene)-1-sulfonamido)propyl)heptanamide], the Ki on human 5-HT2C receptors came to 0.295 µM; at 5-HT2A receptors, 41.2 µM; on 5-HT2B receptors [3] it was 0.167 µM. This molecule displayed a concentration giving a half-maximal response (EC50) at 5-HT2B receptors [2] of 0.245 µM.

`COc1cc(CC(C)N)c(OCCCC(=O)NCCCN2C(=O)c3c(c4ccccc4c4ccccc34)C2=O)cc1I` (stereo not shown) [12c, 4-(2-(2-aminopropyl)-5-iodo-4-methoxyphenoxy)-N-(3-(1,3-dioxo-1,3-dihydro-2H-dibenzo[e,g]isoindol-2-yl)propyl)butanamide]: in data set [1], the “Δλ (Stokes shift)” value was determined as 76 nm, the εmax turned out to be 2758 M⁻¹ cm⁻¹, the “λmax Abs” value is reported as 390 nm and the “λmax Em” value is given as 466 nm. In addition, the affinity at human 5-HT2C receptors, expressed as Ki, was 0.616 µM. At 5-HT2B receptors [2], this molecule came in with an EC50 of 0.0249 µM. The same molecule had an inhibition constant (Ki) at 5-HT2A receptors of 5.18 µM. The Ki on 5-HT2B receptors [3] was 0.0869 µM.

Consider `COC(=O)c1c(C(=O)OCCCNC(=O)CCCOc2cc(I)c(OC)cc2CC(C)N)c2ccccc2c2ccccc12` (stereo not shown) [12d, 9-(3-(4-(2-(2-aminopropyl)-5-iodo-4-methoxyphenoxy)butanamido)pro-pyl)-10-methyl phenanthrene-9,10-dicarboxylate], for which, in data set [1], the “Δλ (Stokes shift)” value was found to be 98 nm, the εmax came out at 6813 M⁻¹ cm⁻¹, the “λmax Abs” value is reported as 305 nm and the “λmax Em” value is listed as 403 nm. The molecule also registered an inhibition constant Ki at human 5-HT2C receptors of 1.1 µM. At 5-HT2B receptors [2], a half-maximal effect (EC50) was put at 0.0255 µM. The molecule also gave an inhibitory constant (Ki) on 5-HT2A receptors of 3.98 µM. The molecule further returned an inhibition constant (Ki) at 5-HT2B receptors [3] of 0.14 µM.

Take `COC(=O)c1c(C(=O)OCCCNC(=O)CCCOc2cc(I)c(OC)cc2CC(C)N)c2cc(F)c(F)cc2c2cc(F)c(F)cc12` (stereo not shown) [12e, 9-(3-(4-(2-(2-aminopropyl)-5-iodo-4-methoxyphenoxy)butanamido)pro-pyl) 10-methyl 2,3,6,7-tetrafluorophenanthrene-9,10-dicarboxylate]: in data set [1], the “Δλ (Stokes shift)” value stood at 83 nm, the εmax came out at 18295 M⁻¹ cm⁻¹, the “λmax Abs” value worked out at 315 nm and the “λmax Em” value is on record as 398 nm. This molecule also gave a Ki on human 5-HT2C receptors of 2.28 µM. The same molecule gave a half-maximal effective concentration (EC50) on 5-HT2B receptors [2] of 0.00945 µM. Also, the Ki on 5-HT2A receptors is 2.57 µM. Also, the inhibitory constant (Ki) on 5-HT2B receptors [3] was 0.148 µM.

Turning to `COC(=O)c1c(C(=O)OCCCNC(=O)CCCOc2cc(I)c(OC)cc2CC(C)N)c2cc3c(cc2c2cc4c(cc12)CCC4)CCC3` (stereo not shown) [12f, 5-(3-(4-(2-(2-aminopropyl)-5-iodo-4-methoxyphenoxy)butanamido)pro-pyl)-6-methyl-1,2,3,8,9,10-hexahydrodicyclopenta[b,h]phenanthrene-5,6-dicarbo-xylate], in data set [1], the “Δλ (Stokes shift)” value is listed as 119 nm, the εmax turned out to be 12078 M⁻¹ cm⁻¹, the “λmax Abs” value was determined as 309 nm and the “λmax Em” value is given as 428 nm. Also, the inhibition constant (Ki) at human 5-HT2C receptors amounted to 1.03 µM. The same molecule had an EC50 at 5-HT2B receptors [2] of 0.047 µM. In addition, the affinity at 5-HT2A receptors, expressed as Ki, was 2.32 µM. At 5-HT2B receptors [3], affinity was put at a Ki of 0.136 µM.

For orientation: Ki means the dissociation constant of the complex between target and ligand, obtained from inhibition or displacement. What is called EC50 is the midpoint of the concentration-response curve. Higher therefore signals lower potency in that assay.
